The target of this assay is T1, AxlA (Aspergillus niger, UniProt A2QTU5).
T1 sequence (A2QTU5 19-736): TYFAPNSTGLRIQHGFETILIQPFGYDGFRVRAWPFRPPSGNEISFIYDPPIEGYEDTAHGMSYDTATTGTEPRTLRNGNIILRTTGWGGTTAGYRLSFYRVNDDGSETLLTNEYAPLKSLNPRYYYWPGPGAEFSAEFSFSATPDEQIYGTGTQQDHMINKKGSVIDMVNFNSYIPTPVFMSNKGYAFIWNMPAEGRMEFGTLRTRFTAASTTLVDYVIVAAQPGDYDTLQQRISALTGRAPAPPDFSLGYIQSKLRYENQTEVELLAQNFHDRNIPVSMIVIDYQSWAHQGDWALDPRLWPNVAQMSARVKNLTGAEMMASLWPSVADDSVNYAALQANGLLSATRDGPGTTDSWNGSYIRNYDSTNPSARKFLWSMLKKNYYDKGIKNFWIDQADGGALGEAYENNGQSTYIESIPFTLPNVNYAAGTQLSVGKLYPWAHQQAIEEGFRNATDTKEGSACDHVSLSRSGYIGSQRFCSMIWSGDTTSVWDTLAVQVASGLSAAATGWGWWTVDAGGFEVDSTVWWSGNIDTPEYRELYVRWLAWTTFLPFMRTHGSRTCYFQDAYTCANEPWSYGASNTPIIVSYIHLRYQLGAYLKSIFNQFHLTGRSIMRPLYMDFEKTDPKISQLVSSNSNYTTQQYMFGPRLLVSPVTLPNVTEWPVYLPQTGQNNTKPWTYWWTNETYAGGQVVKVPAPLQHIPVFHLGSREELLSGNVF
Description: pNPαX hydrolysis competition, nonlinear curve fitting. As to conditions: substrate p-nitrophenyl-α-xyloside 0-20 mM; reaction product. The assay is classed as biochemical.

As usually defined, the Ki is the dissociation constant of the complex between target and ligand, obtained from inhibition or displacement. Lower therefore signals tighter binding. Molecule `OC1OC[C@@H](O)[C@H](O)[C@H]1O` (stereo partly shown) [Xyl] came in with an inhibition constant Ki of 13.7 mM.

(Values after paper PMC3652757, “Enhancement of fermentable sugar yields by α-xylosidase supplementation of commercial cellulases” (Biotechnology for Biofuels, 2013).)
